Literature values in patent US20130236595A1, “FOOD PRODUCT PROVIDING SUSTAINED BLOOD LEVELS OF EXOGENOUS SUBSTANCES” (NESTEC S.A., priority 2003, published 2013).
“Also recorded” adds a separate entry of the source.

Legend:
[1] = caffeine in blood plasma

## Cn1c(=O)c2c(ncn2C)n(C)c1=O [caffeine]
[1]
  threshold value for stimulation: about 2 mg/l
After a cup of coffee is consumed
  time of peak in caffeine level in blood: after about an hour; also recorded: after one hour
In adults
  half-life of caffeine: 3 to 7 h
